“Also recorded” adds a separate entry of the source.
Assays:
PKC-θ/vimentin = molecular target: T1, PKC-θ/vimentin (Mus musculus, UniProt Q02111); assay: confocal microscopy of PKC-θ and vimentin staining in activated Tregs; assay type: cell-based
T1 construct: endogenous in cells
Procedure: FIG. 8A are photographs of the results of experiments in which Tregs were pre-treated with DMSO (control), AEB071, or vimentin siRNA, then activated. PKC-θ and vimentin staining were analyzed by confocal microscopy.
Since PKC-θ localization and function appear to be linked, experiments were performed to understand whether PKC-θ inhibition modulated PKC-θ localization. Consistent with previous work, PKC-θ accumulated at the distal pole of control Tregs after 5 minutes of anti-CD3/CD28 mAb activation (FIG. 8A, top).

Tregs [1] = assay: Treg metabolic activity (OCR, ECAR, BoDipyC1-C12 uptake); assay type: cell-based, mouse; settings: AEB071 vs DMSO, after activation
Procedure: (§1) Lethally irradiated BALB/c mice were given 10e6 C57BL/6 bone marrow only (BM), or BM with 2e6 CD4+25−/CD8+25− Tcon cells without (BM+T) or with 1e6 Tregs treated with either DMSO (DMSO) or 10 μM AEB071 (AEB071) for 30 minutes. […] Tregs were treated with DMSO or AEB071 as above, and activated overnight with plate bound anti-CD3/28 and IL-2. […] […] Tregs were treated with DMSO or AEB071 and activated as above. […] Tregs were transfected with vimentin siRNA (vim) or control (GFP), and activated for 36 hours. CFSE-labeled Tcon were mixed with T-cell depleted splenocytes and soluble anti-CD3 mAb. Treg:Tcon ratios of 1:1-1:27 were plated and CFSE dilution assessed after 3 days.
FIG. 9C is a graph showing basal and maximal oxygen consumption rate (OCR) and extracellular acidification rate (ECAR) measured after transfection. Tregs were transfected with either control (non-targeting) or vimentin siRNA. […] Bars show mean±SEM. Survival differences analyzed by log-rank test. *, p<0.05; **, P<0.01; ***, P<0.0001; ****, p<0.00001 (Student's t-tests or one-way ANOVA with Tukey's post-test).

acute GVHD = assay: mouse MHC class I/II disparate acute GVHD model; assay type: in vivo
Procedure: as §1
(§2) FIG. 9A is a graph showing the percent survival of recipients. Tregs were transfected with either control (non-targeting) or vimentin siRNA. Recipient mice were given BM alone, BM+Tcon (BM+T), or BM+Tcon+Tregs; Tregs pre-treated with control or vimentin siRNA. […] Bars show mean±SEM. Survival differences analyzed by log-rank test. *, p<0.05; **, P<0.01; ***, P<0.0001; ****, p<0.00001 (Student's t-tests or one-way ANOVA with Tukey's post-test).
as §2, with “9B” for “9A”, “clinical GVHD scores (0=no disease, 10=most severe disease) for” for “percent survival of”
As Tregs exert much of their protective effect against GVHD early in the course of the disease, proliferation of GVHD-causing conventional T-cells (Tcon) on D4 after transplant was analyzed. […] Multi-photon microscopy on D4 was performed after transplant using TEα-GFP Tcon, CD11c-eYFP antigen presenting cells (APCs) and wild-type Tregs. […]

Tregs [2] = assay: flow cytometry of marker expression in activated Tregs; assay type: cell-based, mouse
Procedure: as §1
Bars show mean±SEM. *, p<0.05; **, P<0.01; ***, P<0.0001; ****, p<0.00001 (Student's t-tests or one-way ANOVA with Tukey's post-test).
Ratios of 0:1, 1:1, 1:3, 1:9 and 1:27 Treg:Teff were made. Four replicates of each ratio were made and plated in a 96-well, round bottom plate. After 3 days in culture, the cells from each well were harvested, washed with PBS and then stained with antibodies for flow cytometry analysis of CFSE dilution (proliferation) of CD4 and CD8 Tcon. The antibodies used were as follows: CD4-BV510, CD8-PE-ef610, CD25-BV605, Nrp1-PerCP-ef710, Lag3-APC, Fixable viability dye-APC-ef780, Foxp3-PE-Cy7, and Vimentin-PE.

splenic Tregs = assay: flow cytometry of Tregs from acute GVHD recipients; assay type: in vivo, mouse; settings: AEB071 vs DMSO treated Tregs isolated from acute GVHD mice
Tcon-APC interactions = assay: multi-photon microscopy on D4 after transplant; assay type: in vivo, mouse; settings: AEB071-treated Tregs vs DMSO
Procedure: As Tregs exert much of their protective effect against GVHD early in the course of the disease, proliferation of GVHD-causing conventional T-cells (Tcon) on D4 after transplant was analyzed. […] Multi-photon microscopy on D4 was performed after transplant using TEα-GFP Tcon, CD11c-eYFP antigen presenting cells (APCs) and wild-type Tregs.

[3] = system: in vitro-expanded human Tregs; assay: phosphoproteomic screen with human Treg cells; assay type: cell-based
Procedure: Utilizing mass spectroscopy, a total of 12,452 phosphorylation sites were quantified from human Tregs. In order to determine significant differences between DMSO-treated and AEB071-treated Tregs, two experiments were performed concurrently: • Forward experiment: This experiment utilized heavy isotope-labeled Tregs treated with AEB071 and medium isotope-labeled Tregs treated with DMSO. • Reverse experiment: medium isotope-labeled Tregs treated with AEB071 and heavy isotope-labeled Tregs treated with DMSO.
After processing the raw spectra with Max Quant software, the positively identified phosphopeptides were analyzed using Persus software. Contaminating peptides and reverse database hits were filtered out and the peptide intensity values and normalized H/M ratios were log 2 transformed. The significances of the individual H/M ratios calculated using the Significance B test with a false discovery rate of 0.05 for the forward and reverse experiment separately.
Relying only on the Sig B test, the overlap between the two data sets was low with only 15% overlap. In order to improve the overlap between the two data sets, the data was filtered based on fold change (<1.5), consistency of ratios, phospho site localization probability (<75%), and the MaxQuant score (<75). By filtering the results, the overlap improved to 60%.

[4] = system: phosphorylated proteins in activated Tregs; assay: flow cytometry analysis of phosphorylated proteins (phosphoflow) in Tregs; assay type: cell-based, mouse
Procedure: In addition, the mTORC2-specific phosphorylation site on Akt, serine 473, was reduced, whereas the […] phosphorylation site, threonine 308, was unaltered. […] As both mTORC1 and mTORC2 are involved in T-cell metabolism, the effect of AEB071 treatment on Treg oxygen consumption rate (OCR) was investigated. […] Increased OCR has been associated with increased Treg function. […]
Since PKC-θ inhibition modulated Treg metabolism and mTORC2 function, experiments were performed to determine whether vimentin siRNA might have a similar effect. […] Since mTORC2 signaling was reduced after PKC-θ inhibition, it was hypothesized that mTORC2 activity also could be reduced after treatment with vimentin siRNA.

Tcon = assay: in vitro Treg suppression, Tcon type not specified; assay type: cell-based, mouse
Procedure: as §1
On day 3 after transfection, CD4/8 Tcon and T-cell depleted splenoctyes were isolated for a suppression assay. CD4/CD8 Tcon were purified from spleen of CD45.1 C57BL/6 mice using negative selection with eBioscience biotinylated Ab (anti-CD19, B220, NK1.1, gamma-delta TCR) and StemCell technologies streptavidin RapidSphere technology. Once isolated, Tcon were labeled with CFSE (2.5 μM) for 5 minutes at room temperature with constant agitation.
Responder Tcon were provided with 0.75 μg/mL soluble anti-CD3 mAb. […]

[5] = 10 μM AEB071 30 minutes vs DMSO, activated overnight with anti-CD3/28 and IL-2
[6] = PKC-θ inhibition (AEB071), activated Tregs

T1 sequence (Q02111 whole entry): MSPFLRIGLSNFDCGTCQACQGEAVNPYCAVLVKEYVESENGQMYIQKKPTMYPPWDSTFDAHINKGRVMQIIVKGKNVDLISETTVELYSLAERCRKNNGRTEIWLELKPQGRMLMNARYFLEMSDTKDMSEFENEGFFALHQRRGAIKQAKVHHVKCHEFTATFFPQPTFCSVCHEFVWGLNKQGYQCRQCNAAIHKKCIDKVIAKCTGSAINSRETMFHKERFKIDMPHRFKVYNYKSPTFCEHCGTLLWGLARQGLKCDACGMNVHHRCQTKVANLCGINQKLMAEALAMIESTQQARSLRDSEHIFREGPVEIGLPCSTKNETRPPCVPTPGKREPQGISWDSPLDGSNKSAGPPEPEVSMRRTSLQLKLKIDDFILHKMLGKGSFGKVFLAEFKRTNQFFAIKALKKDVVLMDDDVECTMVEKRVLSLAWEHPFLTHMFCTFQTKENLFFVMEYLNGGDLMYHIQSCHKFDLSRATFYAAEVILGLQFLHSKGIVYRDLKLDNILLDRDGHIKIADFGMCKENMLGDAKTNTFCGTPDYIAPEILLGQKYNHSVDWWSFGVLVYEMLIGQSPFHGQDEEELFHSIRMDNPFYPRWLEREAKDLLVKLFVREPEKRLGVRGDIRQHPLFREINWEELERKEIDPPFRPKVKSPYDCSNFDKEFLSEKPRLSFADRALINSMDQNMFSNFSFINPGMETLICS

Question: What does the source list for CN1CCN(c2nc(C3=C(c4c[nH]c5ccccc45)C(=O)NC3=O)c3ccccc3n2)CC1 [AEB071]?
Answer: interaction / overlap between vimentin and PKC-θ (PKC-θ/vimentin; AEB071-pre-treated Tregs after activation vs control): reduced the interaction; PKC-θ localization (PKC-θ/vimentin; AEB071-pre-treated Tregs after anti-CD3/CD28 activation vs control): dispersed throughout the cell; baseline Treg oxygen consumption rate (OCR) (Tregs [1]; time 0-19 min): significantly increased; maximal Treg OCR (Tregs [1]; time 53-70 min): significantly increased; GVHD severity (acute GVHD; Tregs treated 30 minutes with 10 μM AEB071 vs DMSO-treated Tregs): significantly better; recipient survival / GVHD mortality (acute GVHD; Tregs treated 30 minutes with 10 μM AEB071 vs DMSO-treated Tregs, p=0.0036): significantly increased recipient survival; also recorded: significantly better; Tcon proliferation on D4 after transplant (acute GVHD; mice given AEB071 treated Tregs vs DMSO treated Tregs): significant reduction; surface expression of Lymphocyte activation gene 3 (Lag3) (Tregs [2]; [5]): significantly increased; also recorded: augmented expression; surface expression of Neuropilin-1 (Nrp1) (Tregs [2]; [5]): significantly increased; also recorded: augmented expression; GI homing molecule expression (Tregs [2]; AEB071 treatment): did not increase; expression of Lag3 (splenic Tregs): augmented expression; expression of Nrp1 (splenic Tregs): augmented expression; Tcon displacement from APCs (Tcon-APC interactions): significantly increased; Tcon velocity (Tcon-APC interactions): significantly increased; number of proteins with significant alterations in phosphorylation sites ([3]; AEB071 vs DMSO treated human Tregs): 72; phosphorylation of adaptor molecule that links PKC-θ to vimentin (RLTPR) ([3]; AEB071 vs DMSO, b140: RLTPR serine 1226, PKC-theta consensus site): reduced phosphorylation; PKC-θ auto-phosphorylation at Ser676 ([4]; AEB071 treatment, stated by comparison with vimentin siRNA): significantly reduced; Akt phosphorylation at serine 473 (mTORC2-specific site) [4, 6]: reduced; Akt phosphorylation at threonine 308 (mTORC1-specific site) [4, 6]: unaltered; phosphorylation of mTORC2 target FoxO3a [4, 6]: reduced phosphorylation; Treg function after AEB071-treatment of vimentin siRNA transfected Tregs (Tcon; AEB071 added to vimentin siRNA transfected Tregs): did not further augment; effect of AEB071 treatment under antibody blockade of Nrp1 and Lag3 (Tcon; in vitro trans-well suppression assays): reduced the effect
